Assay results taken from US20020012721A1, “Cooked cereal ingredient-containing products fortified with non-ferric edta and insoluble iron compositions and methods for use” (priority 1998, published 2002).

How the values were obtained:
[1] = Iron absorption from fortified corn flakes with milk in women, from radioactivity in circulating erythrocytes; format: in vivo; settings: 30 g corn flakes with 150 ml milk, percent iron absorbed normalized by reference dose of ferrous ascorbate
Procedure: An experiment was conducted to validate the effectiveness of combining reduced iron with a non-ferric EDTA salt. Six sources of iron were compared in a study conducted on women.
The study was performed using a serving of corn flakes, approximately 30 g, with the addition of 150 ml lactose free UHT-treated 2% fat cow's milk. The percentage of iron absorbed by the test subjects was determined from radioactivity present in the circulating erythrocytes. Labeled ^59FeCl3 was used as a tracer in the reference dose of ferrous ascorbate and in the treatments containing FeSO4. Labeled ^55FeCl3 was used as a tracer in the treatments containing elemental reduced iron. The percentage of iron absorbed by the test subjects was normalized by the reference dose of ferrous ascorbate.

[2] = Rat hemoglobin repletion method: iron bioavailability of iron phosphate alone or with Na2EDTA versus FeSO4 in rat diet/Corn Flakes; format: in vivo, Sprague Dawley rats; settings: rats; for Percent Absorption Relative to FeSO4: calculated from the slopes; for Slope: hemoglobin gain versus diet iron concentration, common intercept, letters mark estimates that do not differ (P < .10)
Procedure: An additional study was performed to determine the bioavailability of iron phosphate when combined with Na2EDTA. The relative iron bioavailability of the various iron containing compositions in a ready-to-eat cereal product was assayed using a widely accepted method, commonly referred to as the rat hemoglobin repletion method, (modified AOAC method for assessment of relative iron bioavailability), see Williams, S. ed. Official methods of analysis of the Association of Official Analytical Chemists, 14th ed. Arlington, Va. AOAC, 1984; Fritz, J. C. et al., Collaborative Study of rat hemoglobin repletion test for bioavailability of iron, AOAC 1974, 57:513-517. Relative bioavailability of the various iron:EDTA composition was carried out in a series of separate experiments. In each of these experiments, ferrous sulfate was used as the standard or control compound.
Sprague Dawley rats, individually housed in temperature and light controlled units, were fed an iron deficient diet obtained from Harland Tekland Laboratories for 24 days. After this iron depletion phase, the rats were weighed and blood was drawn to test for baseline hemoglobin concentrations. These anemic animals, with hemoglobin levels between […], were then randomly assigned to the control and test groups. Ferrous sulfate, iron phosphate, and iron phosphate with Na2EDTA were separately added to the test diets to achieve concentrations of 6 and 18 and 24 mg iron/kg diet. These diets were then fed to groups of ten animals, ad libitum, for 14 days. Iron levels in the diets, were verified by atomic absorption spectrometry (Blin et al., J. Assoc. Off. Anal. Chem. 1977, 60:1170-1174). After the 14-day test period, hemoglobin concentrations were determined for all animals.
The iron bioavailability of each iron source, assayed relative to ferrous sulfate, was calculated using the slope ratio procedure by comparing the gain in hemoglobin concentration with the iron concentration in the diet (Finney, D. J., Statistical methods in biological assay.2nd ed. 1964; Amine et L., Biological assessment of available iron in food products, J. Agric. Food Chem. 1974, 22:470-476). […] The percent absorption relative to FeSO4 was calculated from the slopes determined from each experiment.
An additional test was conducted feeding rats a purified rat diet/Corn Flakes® fortified with iron phosphate either alone or in combination with Na2EDTA or mixtures of both. […] As described above the bioavailability was determined by assaying the relative change in hemoglobin in rats fed with the various fortified diets with the recommended daily allowance for humans of iron content (RDA).
Three test diets were evaluated: […]

O=S(=O)([O-])[O-].[Fe+2] [(a) FeSO4, FeSO4]
Normalized Absorption ([1]; 25% Daily Value iron): 11.4%
Percent Absorption Relative to FeSO4 [2]: 100%
Slope [2]: 0.30 (c)

O=S(=O)([O-])[O-].[Fe+2] [(b) FeSO4, FeSO4]
Normalized Absorption ([1]; 50% Daily Value iron): 6.9%

O=P([O-])([O-])[O-].[Fe+3] [B) FePO4, FePO4]
Percent Absorption Relative to FeSO4 [2]: 33%
Slope [2]: 0.10 (a)
